pIC50: −log10 of the molar value.

One assay addresses T1, DPP-8 (Homo sapiens, UniProt Q6V1X1).
T1 construct: purchased Biomol SE-827
The assay can be described thus: Active inhibition DPP-8 assay (Gly-Pro-AMC substrate, fluorescence). It is filed as biochemical. To be noted: Gly-Pro-AMC 10 μM, 50 mM Tris pH 7.5. As for the experimental part: (§1) The following methods were used for testing the inhibitive action of the compound disclosed herein against DPP-IV, DPP-8 and DPP-9 enzymatic activity. The inhibitive ability of the compound disclosed herein against enzymatic activity of DPP-IV, DPP-8 and DPP-9 was tested. The measurements of the inhibition ratio or the 50% inhibiting concentration IC50 of every compound were based on a fixed quantity of enzyme-substrate mixtures and different concentrations of the test compounds.
DPP-8 enzyme was purchased from Biomol, Catalog No. SE-827.
(§2) The test compound was dissolved in an appropriate amount of DMSO to prepare 100 mM mother liquor, which was divided into EP tubes and preserved at −20° C. The mother liquor was diluted with an assay buffer to prepare solutions with required concentrations. Sample solutions with different concentrations (4 μL) and certain concentration of DPP-IV (DPP-8 or DPP-9) solution (4 μL) were added into 384-well plates in turn. Referred to the instruction manual, Gly-Pro-AMC was selected as a substrate and the concentration thereof was 10 μM. The 16 mM mother liquor was prepared from the substrate and preserved at −20° C. for use. The 16 mM mother liquor was diluted with an assay buffer to a solution of known concentration. The assay buffer of DPP-IV was 25 mM Tris, and its pH was 8.0. The assay buffers of DPP-8 and DPP-9 were 50 mM Tris, and their pH was 7.5. The substrate mother liquor was diluted with an assay buffer, and the mixture (4 μL) was added into 384-well plates to prepare final solution concentration. The whole process was carried out in an ice bath. After the addition of the components of the assay system was completed, the system was centrifuged. The supernatant was then transferred to an Infinite F200 multifunctional microplate reader, and 20 fluorescence values were recorded every 30 sec. And then Slope (V0) was calculated directly by the software of microplate reader, fetching the data in the linear range. The measured reaction rate and the corresponding inhibition concentration were analyzed. Percent inhibition is I(%)=(V0−Vi)/V0×100%. Vi represents the initial reaction rate at different inhibition concentrations. V0 represents the initial reaction rate without inhibitor. Vi/V0 represents the inhibition level of inhibitor. Relevant curve chart was made with inhibition concentration as a horizontal coordinate and the value of Vi/V0 as a vertical coordinate. The IC50 values were calculated by Graph Pad Prism statistical analysis software.

In another assay the target is T2, DPP-9 (Homo sapiens, UniProt Q86TI2).
T2 construct: purchased Bioscience 80090
The assay can be described thus: Active inhibition DPP-9 assay (Gly-Pro-AMC substrate, fluorescence). It is filed as biochemical. The following applies: Gly-Pro-AMC 10 μM, 50 mM Tris pH 7.5. Here is the method:
as §1
DPP-9 enzyme was purchased from Bioscience, Catalog No. 80090.
as §2

In another assay the target is T3, DPP-IV (Homo sapiens, UniProt P27487).
T3 construct: purchased R&D 1180-SE
The assay can be described thus: Active inhibition DPP-IV assay (Gly-Pro-AMC substrate, fluorescence). It is filed as biochemical. The following applies: Gly-Pro-AMC 10 μM, 25 mM Tris pH 8.0. Here is the method: as §1
DPP-IV enzyme was purchased from R&D, Catalog No. 1180-SE.
as §2

A further assay concerns normal C57BL/6 mice. Nature of the assay: Effects of DPP-IV inhibitors on the blood glucose of normal C57BL/6 mice (oral glucose tolerance). The following applies: oral 5 mg/kg; for Nor-sugar rate % (5 mg/kg): male C57BL/6 mice, glucose 2.5 g/kg by gavage 30 min after administration. It is filed as in vivo. As for the experimental part:
The effects of the test compounds on the oral glucose tolerance of normal C57BL/6 mice were observed, and the hypoglycemic activities of these compounds in vivo were evaluated preliminarily.
Preparation procedure: Drugs were accurately weighed, and 5 mg of compounds of examples 3, 9 15, 16 and 17 were dissolved respectively in 20 mL of normal saline to obtain 0.25 mg/mL solutions.
Administrated Dose: The oral dose was 5 mg/kg and the gavage dose was 0.02 mL/g.
Test Method: The normal male C57BL/6 mice were grouped randomly into a blank control group, a positive control group, and treatment groups having 7 mice each group.
Administration and Serum Glucose Determination: C57BL/6 mice of each group were fasted for 18 hours before the experiment. The blood was drawn from the caudal vein of the mice and the glucose level was measured by using a blood-glucose meter. After detection, 0.25 mg/mL of positive control, 0.25 mg/mL of examples 3, 9, 15, 16 and 17 and normal saline were respectively administered to the positive control group, treatment groups and blank control group by intragastric administration. The blood glucose level (0 min) of positive control group was measured in 60 min after administration. The blood glucose levels (0 min) of the other groups were measured in 30 min after administration, and then glucose (2.5 g/kg) was administered to the mice through gavage. The blood was drawn from the caudal vein of the mice in 15 min, 30 min, 45 min, 60 min, 120 min after administration. The blood glucose levels of C57BL/6 mice were measured continuously by blood-glucose meter.
1. Glucose concentration-time curve was plotted, and AUC from 0 to 120 min and hypoglycemic rate of each dosage group at blood glucose peak were calculated.
2. Experimental data were represented in x±SD. The data were analyzed by SPSS 16.0 software. The data were compared between multiple groups using nonparametric Kruskal-Wallis H test method.

T2 sequence (Q86TI2 whole entry): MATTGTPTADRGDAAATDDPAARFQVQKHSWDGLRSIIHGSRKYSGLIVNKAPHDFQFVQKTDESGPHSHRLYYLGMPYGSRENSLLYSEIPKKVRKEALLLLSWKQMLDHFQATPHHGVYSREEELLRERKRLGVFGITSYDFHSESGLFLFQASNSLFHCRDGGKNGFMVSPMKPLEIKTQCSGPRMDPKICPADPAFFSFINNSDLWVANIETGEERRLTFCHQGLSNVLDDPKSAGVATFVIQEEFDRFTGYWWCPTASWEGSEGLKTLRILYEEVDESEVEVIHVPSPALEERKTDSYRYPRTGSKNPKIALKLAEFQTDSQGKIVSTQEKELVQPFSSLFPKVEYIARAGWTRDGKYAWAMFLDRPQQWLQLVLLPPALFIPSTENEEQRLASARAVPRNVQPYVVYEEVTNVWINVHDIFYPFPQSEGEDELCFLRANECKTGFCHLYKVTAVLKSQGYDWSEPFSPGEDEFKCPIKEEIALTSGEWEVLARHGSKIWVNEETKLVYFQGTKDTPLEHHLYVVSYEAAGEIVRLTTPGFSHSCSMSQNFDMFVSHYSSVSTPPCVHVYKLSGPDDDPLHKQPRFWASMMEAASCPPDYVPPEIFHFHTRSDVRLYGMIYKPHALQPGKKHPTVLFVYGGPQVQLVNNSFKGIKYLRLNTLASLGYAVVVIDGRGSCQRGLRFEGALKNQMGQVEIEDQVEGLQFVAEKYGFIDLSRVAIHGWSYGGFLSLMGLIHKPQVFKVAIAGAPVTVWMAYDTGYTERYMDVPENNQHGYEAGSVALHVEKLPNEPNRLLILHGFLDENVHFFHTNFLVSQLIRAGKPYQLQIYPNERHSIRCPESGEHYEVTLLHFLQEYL
T3 sequence (P27487 whole entry): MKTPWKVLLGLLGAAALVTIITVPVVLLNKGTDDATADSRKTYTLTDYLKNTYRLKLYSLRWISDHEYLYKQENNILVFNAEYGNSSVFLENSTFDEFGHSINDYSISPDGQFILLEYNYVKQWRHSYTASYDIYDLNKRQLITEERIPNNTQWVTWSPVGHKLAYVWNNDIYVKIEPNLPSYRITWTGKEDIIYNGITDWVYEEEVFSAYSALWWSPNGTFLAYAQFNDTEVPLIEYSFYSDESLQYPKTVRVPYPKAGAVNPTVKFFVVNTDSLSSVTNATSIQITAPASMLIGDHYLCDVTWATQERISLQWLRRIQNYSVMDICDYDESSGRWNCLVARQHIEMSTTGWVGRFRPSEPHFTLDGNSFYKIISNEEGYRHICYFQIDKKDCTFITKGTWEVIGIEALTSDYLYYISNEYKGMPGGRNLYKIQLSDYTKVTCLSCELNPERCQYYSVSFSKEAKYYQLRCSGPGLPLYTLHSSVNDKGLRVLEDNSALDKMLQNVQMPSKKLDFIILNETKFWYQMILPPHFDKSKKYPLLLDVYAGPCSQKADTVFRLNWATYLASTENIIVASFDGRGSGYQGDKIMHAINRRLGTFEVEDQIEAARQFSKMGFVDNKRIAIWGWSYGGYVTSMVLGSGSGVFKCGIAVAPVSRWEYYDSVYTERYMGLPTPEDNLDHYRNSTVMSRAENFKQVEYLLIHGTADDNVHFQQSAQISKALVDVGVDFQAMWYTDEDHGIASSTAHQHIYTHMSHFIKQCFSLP
T1 sequence (Q6V1X1 whole entry): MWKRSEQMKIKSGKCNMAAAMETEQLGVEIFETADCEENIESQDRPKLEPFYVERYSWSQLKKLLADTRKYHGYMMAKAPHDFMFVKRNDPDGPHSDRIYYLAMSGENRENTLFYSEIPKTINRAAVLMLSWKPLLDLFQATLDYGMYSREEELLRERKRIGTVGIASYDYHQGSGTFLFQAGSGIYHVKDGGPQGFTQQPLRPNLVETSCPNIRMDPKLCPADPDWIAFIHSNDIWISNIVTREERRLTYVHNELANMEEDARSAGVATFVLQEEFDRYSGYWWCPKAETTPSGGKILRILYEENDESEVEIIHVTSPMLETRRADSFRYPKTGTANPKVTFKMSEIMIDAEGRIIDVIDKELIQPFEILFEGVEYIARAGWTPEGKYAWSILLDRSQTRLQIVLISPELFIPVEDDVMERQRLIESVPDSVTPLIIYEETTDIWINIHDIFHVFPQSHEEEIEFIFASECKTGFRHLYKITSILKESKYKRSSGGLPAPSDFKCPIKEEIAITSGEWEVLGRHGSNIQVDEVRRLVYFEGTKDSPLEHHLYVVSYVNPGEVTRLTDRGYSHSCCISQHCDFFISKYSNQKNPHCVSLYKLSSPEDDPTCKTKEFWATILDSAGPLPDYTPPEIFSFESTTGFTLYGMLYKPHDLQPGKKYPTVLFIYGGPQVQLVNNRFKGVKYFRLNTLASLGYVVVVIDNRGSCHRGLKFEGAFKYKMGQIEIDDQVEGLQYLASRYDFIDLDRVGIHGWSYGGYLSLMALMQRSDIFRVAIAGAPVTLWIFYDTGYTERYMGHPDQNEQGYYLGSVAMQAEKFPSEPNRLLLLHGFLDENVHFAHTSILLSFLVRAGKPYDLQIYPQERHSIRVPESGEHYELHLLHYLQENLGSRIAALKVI

In general, pIC50 refers to the negative decadic logarithm of the IC50, by convention in mol/L. Regarding `CO[C@@H]1C[C@@H]2C[C@@](C)(NCC(=O)N3CCC[C@H]3C#N)C[C@@H]2C1` [Example 1, (S)-1-(2-(((2r,3aR,5S,6aS)-5-methoxy-2-methyloctahydropentalen-2-yl)amino)acetyl)pyrrolidine-2-carbonitrile], the pIC50 against DPP-8 was 4.30; on DPP-9 it was 5.34; against DPP-IV, 7.95.
Regarding `CO[C@@H]1C[C@@H]2C[C@@](C)(NCC(=O)N3C[C@@H](F)C[C@H]3C#N)C[C@@H]2C1` [Example 2, (2S,4S)-4-fluoro-1-(2-(((2r,3aR,5S,6aS)-5-methoxy-2-methyloctahydropentalen-2-yl)amino)acetyl)pyrrolidine-2-carbonitrile], the negative logarithm of the IC50 (pIC50) against DPP-8 is 5.80; on DPP-9 it was 7.27; against DPP-IV, 8.39.
In the case of `C[C@@]1(NCC(=O)N2C[C@@H](F)C[C@H]2C#N)C[C@H]2C[C@@H](O)C[C@H]2C1` [Example 3, (2S,4S)-4-fluoro-1-(2-(((2r,3aR,5S,6aS)-5-hydroxy-2-methyloctahydropentalen-2-yl)amino)acetyl)pyrrolidine-2-carbonitrile], the pIC50 against DPP-8 was 5.41; on DPP-9, 7.03; on DPP-IV, 8.60. The “Nor-sugar rate % (5 mg/kg)” value in the assay with normal C57BL/6 mice turned out to be 35.96%.
As to `CO[C@H]1C[C@@H]2C[C@@](C)(NCC(=O)N3C[C@@H](F)C[C@H]3C#N)C[C@@H]2C1` [Example 4, (2S,4S)-4-fluoro-1-(2-(((2r,3aR,5R,6aS)-5-methoxy-2-methyloctahydropentalen-2-yl)amino)acetyl)pyrrolidine-2-carbonitrile], the negative-log IC50 (pIC50) against DPP-8 is 6.05; at DPP-9, 7.91; at DPP-IV, 8.60.
For the compound `C[C@@]1(NCC(=O)N2CCC[C@H]2C#N)C[C@H]2C[C@@H](O)C[C@H]2C1` [Example 5, (S)-1-(2-(((2r,3aR,5S,6aS)-5-hydroxy-2-methyloctahydropentalen-2-yl)amino)acetyl)pyrrolidine-2-carbonitrile], the results for the negative-log IC50 (pIC50) against DPP-9 and on DPP-IV were 5.36 and 7.56, respectively.
Consider `CCO[C@@H]1C[C@@H]2C[C@@](C)(NCC(=O)N3CCC[C@H]3C#N)C[C@@H]2C1` [Example 6, (S)-1-(2-(((2r,3aR,5S,6aS)-5-ethoxy-2-methyloctahydropentalen-2-yl)amino)acetyl)pyrrolidine-2-carbonitrile], for which the pIC50 against DPP-8 was 4.74; against DPP-9, 6.71; against DPP-IV, 8.34.
The corresponding values for `CCO[C@@H]1C[C@@H]2C[C@@](C)(NCC(=O)N3C[C@@H](F)C[C@H]3C#N)C[C@@H]2C1` [Example 7, (2S,4S)-1-(2-(((2r,3aR,5S,6aS)-5-ethoxy-2-methyloctahydropentalen-2-yl)amino)acetyl)-4-fluoropyrrolidine-2-carbonitrile] are 5.57, 7.57 and 8.37.
On to `C[C@@]1(NCC(=O)N2C[C@@H](F)C[C@H]2C#N)C[C@H]2C[C@@H](OCC3CC3)C[C@H]2C1` [Example 8, (2S,4S)-1-(2-(((2r,3aR,5S,6aS)-5-(cyclopropylmethoxy)-2-methyloctahydropentalen-2-yl)amino)acetyl)-4-fluoropyrrolidine-2-carbonitrile], for which the figures for the pIC50 against DPP-8, against DPP-9 and on DPP-IV were 5.42, 7.51 and 8.16, respectively.
Regarding `C[C@@]1(NCC(=O)N2C[C@@H](F)C[C@H]2C#N)C[C@H]2C[C@H](O)C[C@H]2C1` [Example 9, (2S,4S)-4-fluoro-1-(2-(((2r,3aR,5R,6aS)-5-hydroxy-2-methyloctahydropentalen-2-yl)amino)acetyl)pyrrolidine-2-carbonitrile], the negative logarithm of the IC50 (pIC50) at DPP-8 is 5.55; against DPP-9, 7.54; against DPP-IV, 8.40. Besides, the “Nor-sugar rate % (5 mg/kg)” value in the assay with normal C57BL/6 mice stood at 18.7%. Moreover, in the assay with normal C57BL/6 mice (conclusion in words), the “hypoglycemic activities for C57BL/6 mice” value is recorded as “good hypoglycemic activities”.
With `CO[C@H]1C[C@@H]2C[C@@](C)(NCC(=O)N3CCC[C@H]3C#N)C[C@@H]2C1` [Example 10, (S)-1-(2-(((2r,3aR,5R,6aS)-5-methoxy-2-methyloctahydropentalen-2-yl)amino)acetyl)pyrrolidine-2-carbonitrile], the pIC50 against DPP-8 was 5.22; against DPP-9, 7.21; at DPP-IV, 8.61.
As to `CO[C@@H]1C[C@@H]2CC(NCC(=O)N3C[C@@H](F)C[C@H]3C#N)C3(CC3)[C@@H]2C1` (stereo partly drawn) [Example 11, (2S,4S)-4-fluoro-1-(2-(((3a′S,5′R,6a′R)-5′-methoxyhexahydro-2′H-spiro[cyclopropane-1,1′-pentalen]-2′-yl)amino)acetyl)pyrrolidine-2-carbonitrile], the negative logarithm of the IC50 (pIC50) at DPP-8 was 4.85; against DPP-9 it was 6.04; at DPP-IV, 6.98.
The compound `C[C@@]1(NCC(=O)N2C3C[C@H]3C[C@H]2C#N)C[C@H]2C[C@@H](O)C[C@H]2C1` (stereo partly drawn) [Example 12, (1S,3S,5S)-2-(2-(((2r,3aR,5S,6aS)-5-hydroxy-2-methyloctahydropentalen-2-yl)amino)acetyl)-2-azabicyclo[3.1.0]hexane-3-carbonitrile] showed a pIC50 against DPP-IV of 6.77.
On DPP-IV, `C[C@@]1(NCC(=O)N2C[C@@H](F)C[C@H]2C#N)C[C@H]2C[C@@H](OC3CC3)C[C@H]2C1` [Example 13, (2S,4S)-1-(2-(((2r,3aR,5S,6aS)-5-cyclopropoxy-2-methyloctahydropentalen-2-yl)amino)acetyl)-4-fluoropyrrolidine-2-carbonitrile] showed a pIC50 of 8.03.
Regarding `C[C@@]1(NCC(=O)N2CCC[C@H]2C#N)C[C@H]2C[C@@H](OC3CC3)C[C@H]2C1` [Example 14, (S)-1-(2-(((2r,3aR,5S,6aS)-5-cyclopropoxy-2-methyloctahydropentalen-2-yl)amino)acetyl)pyrrolidine-2-carbonitrile], the pIC50 at DPP-IV is 8.03.
For the compound `CC(=O)O[C@@H]1C[C@@H]2C[C@@](C)(NCC(=O)N3CCC[C@H]3C#N)C[C@@H]2C1` [Example 18, (2S,3aR,5r,6aS)-5-((2-((S)-2-cyanopyrrolidin-1-yl)-2-oxoethyl)amino)-5-methyloctahydropentalen-2-yl acetate], the pIC50 at DPP-8 is 4.70; at DPP-9 it was 6.62; at DPP-IV, 8.60.
On DPP-IV, `C[C@@]1(NCC(=O)N2C[C@@H](F)C[C@H]2C#N)C[C@H]2CC3(CCO3)C[C@H]2C1` (stereo partly drawn) [Example 19, (2S,4S)-4-fluoro-1-(2-(((3a′R,5′r,6a′S)-5′-methylhexahydro-1′H-spiro[oxetane-2,2′-pentalen]-5′-yl)amino)acetyl)pyrrolidine-2-carbonitrile] showed a pIC50 of 7.59.
As for `C#CC1C[C@@H]2C[C@@](C)(NCC(=O)N3C[C@@H](F)C[C@H]3C#N)C[C@@H]2C1` (stereo partly drawn) [Example 20, (2S,4S)-1-(2-(((2s,3aR,6aS)-5-ethynyl-2-methyloctahydropentalen-2-yl)amino)acetyl)-4-fluoropyrrolidine-2-carbonitrile], the results for the pIC50 at DPP-8, on DPP-9 and against DPP-IV were 5.68, 7.04 and 8.38, respectively.

Source of the values: US9567300B2, “Hexahydropentaleno derivatives, preparation method and use in medicine thereof” (SUNSHINE LAKE PHARMA CO., LTD., priority 2012, dated 2017).
